The values below come from PMC7421900, “Structural, in silico, and functional analysis of a Disabled-2-derived peptide for recognition of sulfatides” (Scientific Reports, 2020).

In experiment [1] the target is T1, Dab2 SBP (Homo sapiens, UniProt P98082, Y38A).
T1 construct: pGEX6P1; vector residues GPLGS remain at N-terminus of cleaved peptide
T1 sequence (P98082 24-58 Y38A): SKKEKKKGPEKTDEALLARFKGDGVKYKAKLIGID
The experiment is described as follows: SPR, L1 sensorchip, sulfatide liposomes captured. The experiment is classed as binding. Conditions: apparent KD; peptide 1-80 µM over 100-nm DPPC:DPPE:cholesterol:sulfatide (1:1:1:4) liposomes; pH 7.4, 100 mM NaCl, room temperature; brain sulfatides of mixed acyl chains.

The target in experiment [2] is T2, Dab2 SBP (Homo sapiens, UniProt P98082).
T2 construct: pGEX6P1; vector residues GPLGS remain at N-terminus of cleaved peptide
T2 sequence (P98082 24-58): T1 sequence (P98082 24-58 Y38A) with A15Y
The experiment is described as follows: SPR, L1 sensorchip, sulfatide liposomes captured. The experiment is classed as binding. As to conditions: apparent KD; peptide 1-80 µM over 100-nm DPPC:DPPE:cholesterol:sulfatide (1:1:1:4) liposomes; pH 7.4, 100 mM NaCl, room temperature; brain sulfatides of mixed acyl chains. Background: Surface plasmon resonance follows binding to a sensor surface in real time, without labels.

Numbering of substitutions follows the chain as printed.

Take sulfatide: the Kd turned out to be 77 ± 6.6 µM in experiment [1] and 49.8 ± 5.4 µM in experiment [2].
